Assay: Inhibition of Tel-fused RON kinase-mediated mouse BaF3 cell proliferation

For `COc1cc(N2CCC(N3CCN(C)CC3)CC2)ccc1Nc1ncc(Cl)c(Nc2ccccc2S(=O)(=O)C(C)C)n1` [TAE684], the IC50 was 1630 nM.
